Data from patent US9487462B2, “Inhibitors of matrix metalloproteinases” (PharmaHungary 2000 Kft., priority 2010, dated 2016).
Where a name gives a salt, the structure may show the parent alone.

How the values were obtained:
[1] = Cytotoxicity, alamarBlue viability, MRC-5; format: cell-based; conditions: human, MRC-5 fibroblast cells, 48 hours incubation, read-out: MRC-5 LC50
Summary of the method: (§1)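 Cells exposed to compound dilutions for 48 hours, then alamarBlue added for 4 hours; fluorescence read at ex 540/em 590 nm. IC50 from six concentrations run in duplicate.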

[2] = Cytotoxicity, alamarBlue viability, HCT116; format: cell-based; conditions: human, HCT116 colon tumor cells, 48 hours incubation, read-out: HCT116 LC50
Summary of the method: as §1

MMP1 = MMP1 (Homo sapiens (Human), UniProt P03956); assay: MMP activity assay (fluorogenic substrate), MMP1; format: biochemical; conditions: Table 2; read-out: MM1 IC50
MMP9 = MMP9 (Homo sapiens, UniProt P14780); assay: MMP activity assay (fluorogenic substrate), MMP9 catalytic domain; format: biochemical; conditions: Table 2
isolated rat hearts = assay: Myocardial ischemia/reperfusion injury in isolated rat hearts (Langendorff), infarct size; format: ex vivo; conditions: 5 μM final concentration; isolated rat hearts, 30 min global ischemia, 120 min reperfusion
Procedure: Male Wistar rats were anesthetized with diethyl ether, heparin (500 U/kg i.v.) was administered and hearts were isolated. The hearts were assigned to three groups: (i) DMSO control and (ii) Compound 1 (1 μM) and (iii) Compound 1 (10 μM) treated. Stock solution of inhibitors was prepared in DMSO. The final DMSO concentration in all assays was 0.1%. Hearts were perfused in Langendorff mode with constant pressure (100 H2O cm) for 20 min at 37° C. then exposed to global ischemia for 30 min followed by 120 min of reperfusion. The DMSO and inhibitors were dissolved in Krebs-Henseleit buffer and administered only before onset of ischemia for 20 min (pretreatment) and during the first 30 min of reperfusion (FIG. 6). At the end of reperfusion, infarct size (IS) was defined by triphenyltetrazolium chloride staining (Csonka et al., 2010).
In separate experiments hearts were perfused to test cardioprotective effect of ALBH-know compound at 5 μM final concentration. The same protocol was used as mentioned above.

MMP13 = MMP13 (Homo sapiens (Human), UniProt P45452); assay: MMP activity assay (fluorogenic substrate), MMP13 catalytic domain; format: biochemical; conditions: Table 2; read-out: MMP13 IC50
MMP-2 = MMP-2 (Rattus norvegicus (Rat), UniProt P33436); assay: In vitro zymography assay (gelatin), MMP-2; format: biochemical; conditions: % ± SD
Procedure: MMP-2 and MMP-9 enzymes were isolated from rat hearts and from rat spleen while human, recombinant MMP-1 and MMP-13 enzymes used were commercial. MMP-2, -9, -13 enzymes were separated by electrophoresis during non-reducing conditions on 8% SDS-polyacrylamide gels copolymerized with 2 mg/ml gelatin from porcine skin (Sigma Aldrich) while MMP-1 was separated under the same conditions on 8% SDS-polyacrylamide gels copolymerized with 2 mg/ml casein (Sigma Aldrich). […] In case of MMP-13 p-aminophenylmercuric acetate (APMA) was used for enzyme activation at 37° C. for 30 min. After electrophoresis, gels were washed in 2.5% Triton-X 100 with agitation and then incubated for 20 hrs at 37° C. in enzyme incubation buffer (50 mM Tris-HCl, pH 7.5, containing 5 mM CaCl2, 200 mM NaCl) with or without MMP inhibitor. Zymographic gels were stained in Coomassie Brilliant Blue R-250 and de-stained. Gelatin and casein zymograms were scanned. MMP activity is detected as a white zone on a blue background and the clear bands in the gel can be quantified by densitometry. The obtained density values were measured and % inhibition values calculated (Kupai et al., 2010). The table below summarizes the prescreen inhibition values determined for different MMP inhibitors on MMP1, -2, -9, -13.

[3] = tested on: healthy human fibroblast cell line MRC-5; assay: Cytotoxicity, alamarBlue viability, MRC-5; format: cell-based; conditions: 48 hours incubation, read-out: MRC-5 LC50
Summary of the method: as §1

[4] = tested on: human colon tumor cell line HCT116; assay: Cytotoxicity, alamarBlue viability, HCT116; format: cell-based; conditions: 48 hours incubation, read-out: HCT116 LC50
Summary of the method: as §1

MMP2 = MMP2 (Homo sapiens, UniProt P08253); assay: MMP activity assay (fluorogenic substrate), MMP2 catalytic domain; format: biochemical; conditions: Table 2; read-out: MMP2 IC50

Sequence of MMP1 (P03956 100-469, species assumed): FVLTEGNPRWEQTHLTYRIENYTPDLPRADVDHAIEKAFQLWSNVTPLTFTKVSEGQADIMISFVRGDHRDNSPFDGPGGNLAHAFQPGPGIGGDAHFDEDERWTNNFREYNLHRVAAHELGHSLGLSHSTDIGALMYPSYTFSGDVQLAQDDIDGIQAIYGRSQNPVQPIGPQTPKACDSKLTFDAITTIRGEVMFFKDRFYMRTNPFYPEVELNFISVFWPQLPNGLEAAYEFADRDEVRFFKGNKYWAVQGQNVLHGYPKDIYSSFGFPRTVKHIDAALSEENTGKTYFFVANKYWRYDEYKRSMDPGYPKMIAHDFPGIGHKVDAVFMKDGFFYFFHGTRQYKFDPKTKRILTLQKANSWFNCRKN
Sequence of MMP-2 (P33436 110-662): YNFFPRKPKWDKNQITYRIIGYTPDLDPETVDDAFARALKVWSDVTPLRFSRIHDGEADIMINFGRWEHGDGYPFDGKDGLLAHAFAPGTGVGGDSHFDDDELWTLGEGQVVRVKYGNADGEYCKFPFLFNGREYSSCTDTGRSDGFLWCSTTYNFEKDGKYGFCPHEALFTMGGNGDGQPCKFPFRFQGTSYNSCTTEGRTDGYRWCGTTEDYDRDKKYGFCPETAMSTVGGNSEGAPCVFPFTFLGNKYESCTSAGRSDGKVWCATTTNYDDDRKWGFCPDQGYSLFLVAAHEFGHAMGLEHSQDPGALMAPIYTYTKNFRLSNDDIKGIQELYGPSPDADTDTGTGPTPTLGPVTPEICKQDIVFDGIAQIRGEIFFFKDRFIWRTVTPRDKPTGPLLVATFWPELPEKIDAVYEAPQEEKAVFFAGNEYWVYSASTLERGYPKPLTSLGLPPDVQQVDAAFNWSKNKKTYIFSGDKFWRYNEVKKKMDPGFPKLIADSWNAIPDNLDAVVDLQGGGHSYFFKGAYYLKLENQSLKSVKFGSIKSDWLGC

For `O=C(O)c1csc(CN(Cc2ccc(F)cc2)Cc2ccc(OCc3ccccc3)cc2)n1` [ALBH-known, 2-[({[4-(benzyloxy)phenyl]methyl}[(4-fluorophenyl)methyl]amino)methyl]-1,3-thiazole-4-carboxylic acid, reference compound], the CC50 at 48 h [1] was 33 µM, the CC50 at 48 h [2] was 3.5 µM and the IC50 (MMP1) was 3.6 µM. For the same compound, the IC50 (MMP9) was 15 µM, the “reduction of myocardial IS as compared to vehicle” value (isolated rat hearts) was 72.01±4.96% and the IC50 (MMP13) was 1.62 µM. For the same compound, the “% inhibition MMP-2 (72 kDa)” value (MMP-2; 1 μM) was “No inhibition” and the inhibition at 100 µM (MMP-2; 100 μM, read-out: % inhibition MMP-2 (72 kDa)) was 100%.
Work on `O=C(O)c1c[nH]c(CN(Cc2ccc(F)cc2)Cc2ccc(OCc3ccccc3)cc2)n1` [Compound 30 HCl, 2-[({[4-(Benzyloxy)phenyl]methyl}[(4-fluorophenyl)methyl]amino)methyl]-1H-imidazole-4-carboxylic acid] yielded a CC50 [3] of 15 µM, a CC50 [4] of 5.6 µM and an IC50 (MMP1) of 33 µM. It also gave an IC50 (MMP9) of 100 µM, an IC50 (MMP2) of 15 µM and an IC50 (MMP13) of 3.3 µM.
